Source: ChEMBL document CHEMBL1201862, “PubChem BioAssay data set” (2004)
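Each compound was tested at five concentrations against cells in 96-well plates for 48 hours. At the GI50, growth is halved.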 The source made the active and inactive calls. Cut-off read from the data, not from the text of the source: active = GI50 up to about 1.1 µM and inactive = higher.

What was measured:
Test in all cases: NCI tumour cell line growth inhibition, 48 h
U-251 = tested on: U-251
COLO 205 = tested on: COLO 205
SK-OV-3 = tested on: SK-OV-3
HCC 2998 = tested on: HCC 2998
HCT-116 = tested on: HCT-116
ACHN = tested on: ACHN
786-0 = tested on: 786-0
MCF7 = tested on: MCF7
SK-MEL-2 = tested on: SK-MEL-2
Hs-578T = tested on: Hs-578T
M14 = tested on: M14
NCI/ADR-RES = tested on: NCI/ADR-RES
SK-MEL-5 = tested on: SK-MEL-5
SN12C = tested on: SN12C
HOP-92 = tested on: HOP-92
MDA-MB-435 = tested on: MDA-MB-435
Malme-3M = tested on: Malme-3M
UO-31 = tested on: UO-31
A549 = tested on: A549
NCI-H522 = tested on: NCI-H522
RPMI-8226 = tested on: RPMI-8226
DU-145 = tested on: DU-145
SF-268 = tested on: SF-268
SF-539 = tested on: SF-539
IGROV-1 = tested on: IGROV-1
UACC-257 = tested on: UACC-257
NCI-H23 = tested on: NCI-H23
CCRF-CEM = tested on: CCRF-CEM
UACC-62 = tested on: UACC-62
K562 = tested on: K562
SNB-19 = tested on: SNB-19
HT-29 = tested on: HT-29
SR = tested on: SR
SK-MEL-28 = tested on: SK-MEL-28
SW-620 = tested on: SW-620
TK-10 = tested on: TK-10
OVCAR-4 = tested on: OVCAR-4
PC-3 = tested on: PC-3
A498 = tested on: A498
MDA-N = tested on: MDA-N
T47D = tested on: T47D
NCI-H226 = tested on: NCI-H226
MOLT-4 = tested on: MOLT-4
SF-295 = tested on: SF-295
HL-60 = tested on: HL-60
OVCAR-3 = tested on: OVCAR-3
OVCAR-8 = tested on: OVCAR-8
EKVX = tested on: EKVX
BT-549 = tested on: BT-549
OVCAR-5 = tested on: OVCAR-5
HCT-15 = tested on: HCT-15
CAKI-1 = tested on: CAKI-1
KM12 = tested on: KM12
SNB-75 = tested on: SNB-75
HOP-62 = tested on: HOP-62
RXF 393 = tested on: RXF 393
NCI-H460 = tested on: NCI-H460
LOX IMVI = tested on: LOX IMVI
MDA-MB-231 = tested on: MDA-MB-231
LXFL 529 = tested on: LXFL 529
M19-MEL = tested on: M19-MEL
DMS-273 = tested on: DMS-273
KM-20L2 = tested on: KM-20L2
DLD-1 = tested on: DLD-1
SNB-78 = tested on: SNB-78

## C[N+](C)(C)CC1Cc2ccccc2C1=O (configuration not stated)
U-251
  GI50: > 10 µM (inactive)
COLO 205
  GI50: 2.93 µM (inactive)
SK-OV-3
  GI50: > 10 µM (inactive)
HCC 2998
  GI50: > 10 µM (inactive)
HCT-116
  GI50: 1.72 µM (inactive)
ACHN
  GI50: > 10 µM (inactive)
786-0
  GI50: 3.32 µM (inactive)
MCF7
  GI50: 2.07 µM (inactive)
SK-MEL-2
  GI50: > 9.14 µM (inactive)
Hs-578T
  GI50: > 10 µM (inactive)
M14
  GI50: 2.75 µM (inactive)
NCI/ADR-RES
  GI50: > 4.78 µM (inactive)
SK-MEL-5
  GI50: > 10 µM (inactive)
SN12C
  GI50: > 7.45 µM (inactive)
HOP-92
  GI50: 3.91 µM (inactive)
MDA-MB-435
  GI50: > 6.87 µM (inactive)
Malme-3M
  GI50: 2.11 µM (inactive)
UO-31
  GI50: > 10 µM (inactive)
A549
  GI50: > 10 µM (inactive)
NCI-H522
  GI50: 2.36 µM (inactive)
RPMI-8226
  GI50: 1.48 µM (inactive)
DU-145
  GI50: > 10 µM (inactive)
SF-268
  GI50: > 10 µM (inactive)
SF-539
  GI50: > 10 µM (inactive)
IGROV-1
  GI50: > 10 µM (inactive)
UACC-257
  GI50: > 10 µM (inactive)
NCI-H23
  GI50: > 10 µM (inactive)
CCRF-CEM
  GI50: 1.66 µM (inactive)
UACC-62
  GI50: > 10 µM (inactive)
K562
  GI50: 1.4 µM (inactive)
SNB-19
  GI50: > 10 µM (inactive)
HT-29
  GI50: 6.38 µM (inactive)
SR
  GI50: 1.22 µM (inactive)
SK-MEL-28
  GI50: 5.58 µM (inactive)
SW-620
  GI50: 1.87 µM (inactive)
TK-10
  GI50: > 8.36 µM (inactive)
OVCAR-4
  GI50: 2.72 µM (inactive)
PC-3
  GI50: > 10 µM (inactive)
A498
  GI50: > 10 µM (inactive)
MDA-N
  GI50: 3.72 µM (inactive)
T47D
  GI50: 2.51 µM (inactive)
NCI-H226
  GI50: > 10 µM (inactive)
MOLT-4
  GI50: 1.71 µM (inactive)
SF-295
  GI50: > 10 µM (inactive)
HL-60
  GI50: 1.56 µM (inactive)
OVCAR-3
  GI50: > 5.81 µM (inactive)
OVCAR-8
  GI50: 1.89 µM (inactive)
EKVX
  GI50: > 10 µM (inactive)
BT-549
  GI50: > 10 µM (inactive)
OVCAR-5
  GI50: > 10 µM (inactive)
HCT-15
  GI50: 4.53 µM
CAKI-1
  GI50: > 4.8 µM (inactive)
KM12
  GI50: > 10 µM (inactive)
SNB-75
  GI50: > 10 µM (inactive)
HOP-62
  GI50: > 10 µM (inactive)
RXF 393
  GI50: > 9.31 µM (inactive)
NCI-H460
  GI50: > 10 µM (inactive)
LOX IMVI
  GI50: 4.41 µM (inactive)
MDA-MB-231
  GI50: > 10 µM (inactive)

## CN(C)/C(=N\C#N)NCc1ccccc1
U-251
  GI50: > 100 µM (inactive)
COLO 205
  GI50: > 100 µM (inactive)
SK-OV-3
  GI50: > 100 µM (inactive)
LXFL 529
  GI50: > 100 µM (inactive)
M19-MEL
  GI50: > 100 µM (inactive)
HCC 2998
  GI50: > 100 µM (inactive)
HCT-116
  GI50: > 100 µM (inactive)
ACHN
  GI50: > 100 µM (inactive)
786-0
  GI50: > 100 µM (inactive)
SK-MEL-2
  GI50: > 100 µM (inactive)
M14
  GI50: > 100 µM (inactive)
DMS-273
  GI50: > 100 µM (inactive)
SK-MEL-5
  GI50: > 100 µM (inactive)
SN12C
  GI50: > 100 µM (inactive)
HOP-92
  GI50: > 100 µM (inactive)
UO-31
  GI50: > 100 µM (inactive)
A549
  GI50: > 100 µM (inactive)
NCI-H522
  GI50: > 100 µM (inactive)
KM-20L2
  GI50: > 100 µM (inactive)
SF-268
  GI50: > 100 µM (inactive)
SF-539
  GI50: > 100 µM (inactive)
IGROV-1
  GI50: > 100 µM (inactive)
UACC-257
  GI50: > 100 µM (inactive)
NCI-H23
  GI50: > 100 µM (inactive)
UACC-62
  GI50: > 100 µM (inactive)
SNB-19
  GI50: > 100 µM (inactive)
DLD-1
  GI50: > 100 µM (inactive)
HT-29
  GI50: > 100 µM (inactive)
SK-MEL-28
  GI50: > 100 µM (inactive)
SW-620
  GI50: > 100 µM (inactive)
TK-10
  GI50: > 100 µM (inactive)
OVCAR-4
  GI50: > 100 µM (inactive)
SF-295
  GI50: > 100 µM (inactive)
OVCAR-3
  GI50: > 100 µM (inactive)
OVCAR-8
  GI50: > 100 µM (inactive)
EKVX
  GI50: > 100 µM (inactive)
HCT-15
  GI50: > 100 µM
CAKI-1
  GI50: > 100 µM (inactive)
KM12
  GI50: > 100 µM (inactive)
HOP-62
  GI50: > 100 µM (inactive)
NCI-H460
  GI50: > 100 µM (inactive)
LOX IMVI
  GI50: > 100 µM (inactive)
SNB-78
  GI50: > 100 µM (inactive)
